Laboratory results taken from patent EP0284725A2, “Indoxyl-beta-d-glucuronide and method for making” (QUEEN'S UNIVERSITY AT KINGSTON, priority 1987, dated 1988).
Counter-ions that a name gives are not always drawn.

Tests used:
Escherichia coli = test: Enzyme reaction of bacteria on m-TECB based agar media in microtiter plates, read visually by colour; assay type: cell-based
Description: (§1) Enzyme activity was detected on the m-TEC medium of Dufour et al. (Dufour, A.P., E.R. Strickland and V.J. Cabelli. 1981. Membrane filter method for enumerating Eseherichia coli. Appl. Envion. Microbiol. 41: 1152-1158) prepared with the following modifications: bromocresol purple, bromophenol red and lactose were omitted; the modified m-TEC medium contained (g/1 proteose peptone No. 3, 5.0g; yeast extract 3.0g; glycerol 10.0g; NaCl 7.5g; K2HPO4 3.3g; KH2PO4 1.0g; sodium lauryl sulfate 0.2g; sodium deoxycholate 0.10g and agar 15.0g. The medium was autoclaved for 15 minutes at 121°C. The following chemicals, purchased from the Sigma Chemical Company, St.Louis. Mo., were added separately to the modified m-TEC medium after autoclaving and cooling to 50°C - 60°C: para-nitrophenyl-β- ? -glucuronide 400 mg/l; indoxyl-β- ? -glucoside 250 mg/l. Indoxyl-β- ? -glucuronide, prepared as described in Example 8, was added at 350-400 mg/l. The four agar media used in this study will be referred to as follows: modified m-TEC as m-TECB medium; the formulations of indoxyl-β-D -glucuronide as IGA, para-nitrophenyl-β-D-glucuronide as PNGA, and indoxyl-β-D -glucoside (indican) as IA media.
(§2) In this experiment, four organisms were tested for β- D -glucuronidase and β- D -glucosidase activity: American Type Culture Collection (ATCC) strains Escherichia Coli 35218 and Klebsiella pneumonia 13883; environmental isolates that have been characterized in our laboratory, Escherichia coli 83-17350 and Klebsiella pneumonia PHL.
(§3) A series of m-TECB agar basal media microtiter plates were prepared, using the m-TECB base media described in Example 9, and indoxyl-β- D -glucuronide, p-nitrophenyl-β- D -glucuronide or indoxyl-β-D-glucoside was added to respective plates. Specific bacteria from controlled sources, described above, were applied to the plates and incubated at 45°C for 16 2 hours.

Klebsiella pneumonia = test: as above; assay type: cell-based; settings: K. pneumonia
Description: as §1, §2, §3

Compound	colour / reactivity (Escherichia coli; Environmental and ATCC strains of E.coli)	colour / reactivity (Klebsiella pneumonia)	hydrolysis by the glucuronidase activity of E. coli (Escherichia coli)
OC[C@H]1O[C@@H](Oc2c[nH]c3ccccc23)[C@H](O)[C@@H](O)[C@@H]1O [indican, indoxyl-β-D -glucoside]	no reactivity	blue colour	–
O=C(O)[C@H]1O[C@@H](Oc2c[nH]c3ccccc23)[C@H](O)[C@@H](O)[C@@H]1O [indoxyl-β- D -glucuronide, Indoxyl-β-D -Glucuronide Sodium Salt]	–	–	readily and specifically hydrolysed
